Laboratory results taken from patent US20120245137A1 (Zalicus Pharmaceuticals Ltd., priority 2009, published 2012).
Read-outs that look alike come from different tables or passages of the source.

How the values were obtained:
Type in all cases: cell-based
Human Cav 2.2 channels = Human Cav 2.2 channels (Homo sapiens, UniProt Q00975); assay: Fluorescent assay for CaV2.2 channels using potassium depolarization (VIPR/FLIPR); settings: FLIPR data; for CAv2.2 IC50 Ratio closed/inact.: ratio closed/inactivated IC50
Method in brief: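 HEK293 cells stably expressing human Cav2.2 with α2δ and β subunits plus Kir2.3 were loaded with fluo-4 and incubated 30 min at 25 °C with compound in 4, 12, 25 or 30 mM potassium buffer. Channels were opened with 70 mM potassium (final) and calcium influx was read by fluorescence (Ex 480/Em 535 nm).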

T-type calcium channel [1] = target: T-type calcium channel (Homo sapiens, UniProt O43497); assay: T-type channel blocking, FLIPR data (Table 6); settings: CAv3.1
Source text: (§1) Another method, high-throughput spectrophotometric assay, utilizes loading of the cell lines with a fluorescent dye sensitive to intracellular calcium concentration and subsequent examination of the effects of compounds on the ability of depolarization by potassium chloride or other means to alter intracellular calcium levels.

T-type calcium channel [2] = target: T-type calcium channel (Homo sapiens, UniProt O95180); assay: T-type channel blocking, FLIPR data (Table 6); settings: for CAv3.2 IC50 Ratio closed/inact.: CAv3.2, ratio closed/inactivated IC50
Source text: as §1

CAv1.2 = CAv1.2 (Homo sapiens, UniProt Q13936); assay: FLIPR data, CAv1.2 channel blocking (Table 6); settings: for CAv1.2 IC50 Ratio closed/inact.: ratio closed/inactivated IC50
CAv1.2, sequence (Q13936 whole entry): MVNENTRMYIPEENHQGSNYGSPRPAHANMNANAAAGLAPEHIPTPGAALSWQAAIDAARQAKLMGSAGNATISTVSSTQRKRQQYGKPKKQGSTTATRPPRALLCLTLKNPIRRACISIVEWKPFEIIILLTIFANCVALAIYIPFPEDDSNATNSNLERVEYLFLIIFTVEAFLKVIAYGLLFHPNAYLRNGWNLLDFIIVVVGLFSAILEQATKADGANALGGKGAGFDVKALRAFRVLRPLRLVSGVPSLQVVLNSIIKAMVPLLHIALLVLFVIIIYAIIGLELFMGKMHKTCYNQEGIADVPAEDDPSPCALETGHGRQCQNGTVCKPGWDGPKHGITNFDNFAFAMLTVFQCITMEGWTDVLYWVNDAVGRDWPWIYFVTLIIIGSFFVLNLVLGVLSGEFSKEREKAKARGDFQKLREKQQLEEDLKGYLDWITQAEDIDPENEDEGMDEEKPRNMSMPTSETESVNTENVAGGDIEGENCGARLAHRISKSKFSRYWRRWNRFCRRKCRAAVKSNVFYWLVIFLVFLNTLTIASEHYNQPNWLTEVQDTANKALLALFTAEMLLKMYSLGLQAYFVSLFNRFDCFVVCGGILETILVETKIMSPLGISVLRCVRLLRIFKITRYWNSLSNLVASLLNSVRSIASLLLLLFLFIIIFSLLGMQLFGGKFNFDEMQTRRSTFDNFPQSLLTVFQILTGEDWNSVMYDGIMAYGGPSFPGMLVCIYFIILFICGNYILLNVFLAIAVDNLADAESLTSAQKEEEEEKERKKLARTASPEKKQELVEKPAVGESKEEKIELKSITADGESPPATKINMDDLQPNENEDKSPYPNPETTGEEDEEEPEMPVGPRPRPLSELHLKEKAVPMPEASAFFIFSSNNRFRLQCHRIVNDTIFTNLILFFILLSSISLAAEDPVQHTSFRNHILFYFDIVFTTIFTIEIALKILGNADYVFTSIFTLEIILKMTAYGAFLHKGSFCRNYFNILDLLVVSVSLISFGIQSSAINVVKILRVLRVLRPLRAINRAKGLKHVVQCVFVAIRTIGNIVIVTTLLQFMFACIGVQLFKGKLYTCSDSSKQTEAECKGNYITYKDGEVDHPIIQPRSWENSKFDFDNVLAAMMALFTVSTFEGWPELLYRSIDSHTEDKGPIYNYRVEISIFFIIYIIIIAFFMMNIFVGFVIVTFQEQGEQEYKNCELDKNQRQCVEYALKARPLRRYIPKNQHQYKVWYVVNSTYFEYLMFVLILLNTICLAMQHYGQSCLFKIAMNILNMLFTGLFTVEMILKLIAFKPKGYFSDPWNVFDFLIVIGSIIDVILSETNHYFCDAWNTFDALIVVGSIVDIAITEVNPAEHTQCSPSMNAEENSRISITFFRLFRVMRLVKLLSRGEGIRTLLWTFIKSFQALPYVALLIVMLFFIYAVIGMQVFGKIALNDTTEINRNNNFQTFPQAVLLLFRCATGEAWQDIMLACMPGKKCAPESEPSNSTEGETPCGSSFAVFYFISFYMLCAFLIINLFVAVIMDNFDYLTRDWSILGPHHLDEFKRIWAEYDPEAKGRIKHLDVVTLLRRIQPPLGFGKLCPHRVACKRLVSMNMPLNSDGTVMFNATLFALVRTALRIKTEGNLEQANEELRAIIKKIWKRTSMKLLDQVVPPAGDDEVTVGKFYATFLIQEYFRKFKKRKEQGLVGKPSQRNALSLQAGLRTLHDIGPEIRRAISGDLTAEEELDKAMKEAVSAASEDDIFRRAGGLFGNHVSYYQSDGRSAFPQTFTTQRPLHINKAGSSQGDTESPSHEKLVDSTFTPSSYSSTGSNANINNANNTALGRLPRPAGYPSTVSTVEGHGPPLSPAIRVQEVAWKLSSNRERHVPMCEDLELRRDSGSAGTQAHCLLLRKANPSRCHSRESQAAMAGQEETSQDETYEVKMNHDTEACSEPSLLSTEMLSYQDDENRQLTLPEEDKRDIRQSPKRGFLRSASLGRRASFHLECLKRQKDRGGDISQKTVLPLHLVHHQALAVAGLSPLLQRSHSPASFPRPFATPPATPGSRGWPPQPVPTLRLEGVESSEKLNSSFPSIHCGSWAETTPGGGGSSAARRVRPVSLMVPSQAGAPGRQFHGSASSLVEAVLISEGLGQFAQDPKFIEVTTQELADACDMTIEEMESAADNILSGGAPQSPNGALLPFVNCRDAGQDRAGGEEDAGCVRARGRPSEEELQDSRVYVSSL
CAv1.2, sequence (P54289 25-1103 partner): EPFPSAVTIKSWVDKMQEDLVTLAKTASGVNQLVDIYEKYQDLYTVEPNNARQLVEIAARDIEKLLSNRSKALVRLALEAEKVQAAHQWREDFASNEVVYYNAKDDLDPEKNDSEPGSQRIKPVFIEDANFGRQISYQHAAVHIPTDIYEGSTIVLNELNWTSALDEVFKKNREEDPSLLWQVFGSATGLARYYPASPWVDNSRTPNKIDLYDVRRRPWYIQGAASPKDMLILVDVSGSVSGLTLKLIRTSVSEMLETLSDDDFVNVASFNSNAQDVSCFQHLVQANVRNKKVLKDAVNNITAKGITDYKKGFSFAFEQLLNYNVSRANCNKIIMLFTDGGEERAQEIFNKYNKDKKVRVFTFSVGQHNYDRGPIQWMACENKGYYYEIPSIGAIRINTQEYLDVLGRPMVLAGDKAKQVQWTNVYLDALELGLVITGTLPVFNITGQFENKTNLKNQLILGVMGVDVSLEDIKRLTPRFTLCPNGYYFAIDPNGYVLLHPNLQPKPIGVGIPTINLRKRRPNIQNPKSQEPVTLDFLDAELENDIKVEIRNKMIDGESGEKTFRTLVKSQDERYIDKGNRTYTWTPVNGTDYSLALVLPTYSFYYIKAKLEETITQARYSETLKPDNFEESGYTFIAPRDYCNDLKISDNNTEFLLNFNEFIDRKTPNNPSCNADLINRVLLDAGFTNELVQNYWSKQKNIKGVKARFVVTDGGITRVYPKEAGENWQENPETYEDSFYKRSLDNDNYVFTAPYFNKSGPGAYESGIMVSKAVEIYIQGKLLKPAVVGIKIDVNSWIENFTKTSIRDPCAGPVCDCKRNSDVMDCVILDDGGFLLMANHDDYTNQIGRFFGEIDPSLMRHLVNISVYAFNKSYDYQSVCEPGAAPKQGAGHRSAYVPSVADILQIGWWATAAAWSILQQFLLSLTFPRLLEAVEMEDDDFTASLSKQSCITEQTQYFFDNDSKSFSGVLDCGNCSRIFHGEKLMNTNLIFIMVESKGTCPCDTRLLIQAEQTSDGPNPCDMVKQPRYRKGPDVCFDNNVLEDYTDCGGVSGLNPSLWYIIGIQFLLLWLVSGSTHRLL
CAv1.2, sequence (Q08289 whole entry partner): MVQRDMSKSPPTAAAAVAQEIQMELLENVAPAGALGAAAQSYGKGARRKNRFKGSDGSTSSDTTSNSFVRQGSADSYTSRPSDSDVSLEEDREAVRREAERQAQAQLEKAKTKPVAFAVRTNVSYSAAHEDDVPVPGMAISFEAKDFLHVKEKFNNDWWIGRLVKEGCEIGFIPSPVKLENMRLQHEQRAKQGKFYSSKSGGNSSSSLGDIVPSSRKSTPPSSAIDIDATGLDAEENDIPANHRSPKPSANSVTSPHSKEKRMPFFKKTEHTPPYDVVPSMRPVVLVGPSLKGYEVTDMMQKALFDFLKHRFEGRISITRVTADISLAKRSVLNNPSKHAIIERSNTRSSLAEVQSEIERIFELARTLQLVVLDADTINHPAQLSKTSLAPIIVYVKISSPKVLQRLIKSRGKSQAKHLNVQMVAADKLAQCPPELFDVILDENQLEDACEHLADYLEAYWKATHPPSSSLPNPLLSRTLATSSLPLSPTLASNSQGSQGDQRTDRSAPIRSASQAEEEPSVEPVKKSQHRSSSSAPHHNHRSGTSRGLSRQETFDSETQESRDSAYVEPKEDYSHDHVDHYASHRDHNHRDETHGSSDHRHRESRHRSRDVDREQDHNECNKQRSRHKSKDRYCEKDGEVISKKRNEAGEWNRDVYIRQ

[3] = closed state, read-out: CAv2.2 IC50 Closed
[4] = inactivated state, read-out: CAv2.2 IC50 Inact.
[5] = CAv3.2, closed state, read-out: CAv3.2 IC50 Closed
[6] = CAv3.2, inactivated state, read-out: CAv3.2 IC50 Inact.
[7] = closed state, read-out: CAv1.2 IC50 Closed
[8] = inactivated state, read-out: CAv1.2 IC50 Inact.

| SMILES | IC50 (Human Cav 2.2 channels; [3]) [µM] | IC50 (Human Cav 2.2 channels; [4]) [µM] | CAv2.2 IC50 Ratio closed/inact. (Human Cav 2.2 channels) | IC50 (T-type calcium channel [1]) [µM] | IC50 (T-type calcium channel [2]; [5]) [µM] | IC50 (T-type calcium channel [2]; [6]) [µM] | CAv3.2 IC50 Ratio closed/inact. (T-type calcium channel [2]) | IC50 (CAv1.2; [7]) [µM] | IC50 (CAv1.2; [8]) [µM] | CAv1.2 IC50 Ratio closed/inact. (CAv1.2) |
| --- | --- | --- | --- | --- | --- | --- | --- | --- | --- | --- |
| CC(C)([C@H]1C[C@@H](NS(=O)(=O)c2ccc(F)c(C(F)(F)F)c2)C1)S(=O)(=O)c1cc(F)cc(C(F)(F)F)c1 [Compound 601] | 7.07 | 0.9 | 7.9 | 3.82 | ≥ 10 | 4.97 | 2 | 8.84 | 2.86 | 3.1 |
| CC(C)([C@H]1C[C@@H](NS(=O)(=O)c2ccc(C(F)(F)F)nc2)C1)S(=O)(=O)c1cc(F)cc(C(F)(F)F)c1 [Compound 602] | 6.08 | 0.75 | 8.1 | 6.36 | ≥ 10 | 5.38 | 1.9 | 9.77 | 3.94 | 2.5 |
| CC(C)([C@H]1C[C@@H](NS(=O)(=O)c2ccc(OC(F)(F)F)cc2)C1)S(=O)(=O)c1cc(F)cc(C(F)(F)F)c1 [Compound 603] | 4.17 | 0.61 | 6.8 | 5.48 | ≥ 10 | 6.46 | 1.5 | 6.92 | 2.12 | 3.3 |
| CC(C)([C@H]1C[C@H](NS(=O)(=O)c2ccc(C(F)(F)F)cc2)C1)S(=O)(=O)c1cc(F)cc(C(F)(F)F)c1 [Compound 605] | 5.4 | 0.87 | 6.2 | 4.35 | 4.79 | 2.21 | 2.2 | 5.29 | 1.92 | 2.8 |
| CC(C)([C@H]1C[C@H](NS(=O)(=O)c2ccc(F)c(Cl)c2)C1)S(=O)(=O)c1cc(F)cc(C(F)(F)F)c1 [Compound 606] | 2.51 | 0.92 | 2.7 | 4.17 | 8.53 | 3.57 | 2.4 | 5.65 | 2.76 | 2 |
| CC(C)([C@H]1C[C@H](NS(=O)(=O)c2ccc(Cl)c(F)c2)C1)S(=O)(=O)c1cc(F)cc(C(F)(F)F)c1 [Compound 607] | 2.97 | 1.15 | 2.6 | 5.43 | ≥ 10 | 3.73 | 2.7 | 7.78 | 2.99 | 2.6 |
| CC(C)([C@H]1C[C@H](NS(=O)(=O)c2ccc(F)c(C(F)(F)F)c2)C1)S(=O)(=O)c1cc(F)cc(C(F)(F)F)c1 [Compound 608] | 4.03 | 1.1 | 3.7 | 4.92 | ≥ 10 | 2.58 | 3.9 | 7.75 | 2.45 | 3.2 |
| CC(C)([C@H]1C[C@H](NS(=O)(=O)c2ccc(C(F)(F)F)nc2)C1)S(=O)(=O)c1cc(F)cc(C(F)(F)F)c1 [Compound 609] | 4.17 | 1.17 | 3.6 | 9.91 | ≥ 10 | 2.54 | 3.9 | 9.99 | 4.32 | 2.3 |
| CC(C)([C@H]1C[C@H](NS(=O)(=O)c2ccc(OC(F)(F)F)cc2)C1)S(=O)(=O)c1cc(F)cc(C(F)(F)F)c1 [Compound 610] | 3.58 | 1.13 | 3.2 | 5.3 | ≥ 10 | 1.43 | 7 | 8.93 | 2.93 | 3 |
| Cc1nc(S(=O)(=O)N[C@H]2C[C@H](C(C)(C)S(=O)(=O)c3cc(F)cc(C(F)(F)F)c3)C2)cn1C [Compound 611] | 10 | 9.14 | 1.1 | ≥ 10 |  | 10 |  | ≥ 10 | ≥ 10 |  |
| CC(C)(C1CC(CNC(=O)c2ccc(C(F)(F)F)cc2S(C)(=O)=O)C1)S(=O)(=O)c1cccc(C(F)(F)F)c1 (stereo not shown) [Compound 612] | 8.54 | 0.54 | 15.8 | ≥ 10 | 9.28 | 3.95 | 2.3 | ≥ 10 | 4.17 | 2.4 |
| CC(C)S(=O)(=O)c1cc(C(F)(F)F)cnc1C(=O)NCC1CC(C(C)(C)S(=O)(=O)c2cccc(C(F)(F)F)c2)C1 (stereo not shown) [Compound 613] | 6.51 | 0.35 | 18.6 | ≥ 10 | 9.16 | 5.45 | 1.7 | 8 | 5.92 | 1.4 |
| CC(C)(C1CC(CNC(=O)c2cc(C(F)(F)F)n[nH]2)C1)S(=O)(=O)c1cccc(C(F)(F)F)c1 (stereo not shown) [Compound 614] | 2.87 | 0.49 | 5.9 | ≥ 10 | 7.2 | 3.2 | 2.3 | 8.03 | 2.41 | 3.3 |
| CC(C)(C1CC(CNC(=O)c2ccnc(C(F)(F)F)n2)C1)S(=O)(=O)c1cccc(C(F)(F)F)c1 (stereo not shown) [Compound 615] | 1.37 | 0.25 | 5.5 | ≥ 10 | ≥ 10 | 7.17 | 1.4 | ≥ 10 | 5.61 | 1.8 |
| CC(C)(C1CC(CNC(=O)c2cnc(C(F)(F)F)nc2)C1)S(=O)(=O)c1cccc(C(F)(F)F)c1 (stereo not shown) [Compound 616] | 4.81 | 0.61 | 7.9 | ≥ 10 | ≥ 10 | 6.4 | 1.6 | ≥ 10 | 2.81 | 3.6 |
| CC(C)(C1CC(CNC(=O)c2ccc(Cl)c(F)c2)C1)S(=O)(=O)c1cccc(C(F)(F)F)c1 (stereo not shown) [Compound 617] | 1.34 | 0.15 | 8.9 | 8.03 | 2.69 | 0.81 | 3.3 | 4.05 | 0.38 | 10.7 |
| CC(C)(C1CC(CNC(=O)c2ccc(F)c(Cl)c2)C1)S(=O)(=O)c1cccc(C(F)(F)F)c1 (stereo not shown) [Compound 618] | 1.3 | 0.12 | 10.8 | 2.47 | 1.99 | 0.35 | 5.7 | 4.08 | 0.3 | 13.6 |
| CC(C)(C1CC(CNC(=O)c2ccc(OCC(F)(F)F)nc2)C1)S(=O)(=O)c1cccc(C(F)(F)F)c1 (stereo not shown) [Compound 619] | 1.66 | 0.26 | 6.4 | 5.12 | 3.29 | 1.27 | 2.6 | 4.42 | 1.36 | 3.3 |
| CC(C)(C1CC(CNC(=O)c2ccnc(C(F)(F)F)c2)C1)S(=O)(=O)c1cccc(C(F)(F)F)c1 (stereo not shown) [Compound 620] | 2.87 | 0.39 | 7.4 | 8.71 | 5.52 | 1.39 | 4 | 9.99 | 0.67 | 14.9 |
| CC(C)(C1CC(CNC(=O)c2ccc(Cl)c(OC(F)(F)F)c2)C1)S(=O)(=O)c1cccc(C(F)(F)F)c1 (stereo not shown) [Compound 621] | 1.83 | 0.15 | 12.2 | 1.47 | 1.53 | 0.2 | 7.7 | 3.39 | 0.24 | 14.1 |
| CC(C)([C@H]1C[C@@H](NS(=O)(=O)c2ccc(C(F)(F)F)cc2Cl)C1)S(=O)(=O)c1cc(F)cc(C(F)(F)F)c1 [Compound 622] | 4.79 | 0.68 | 7 | 4.86 | ≥ 10 | 4.48 | 2.2 | 9.01 | 1.94 | 4.6 |
| CC(C)([C@H]1C[C@H](NS(=O)(=O)c2ccc(C(F)(F)F)cc2Cl)C1)S(=O)(=O)c1cc(F)cc(C(F)(F)F)c1 [Compound 623] | 3.37 | 0.74 | 4.6 | 5.3 | ≥ 10 | 1.54 | 6.5 | 8.07 | 1.54 | 5.2 |
